Measurements from US12550923B2, “Allulose syrups” (Tate & Lyle Solutions USA LLC, priority 2015, dated 2026).

Test: Crystallization stability of seeded allulose syrups
Format: physicochemical
Settings: 25° C.
Protocol: Allulose syrups were prepared at 50, 60, 71, 77, and 85% DS and were equilibrated at 25° C., 15° C. and 4° C. These samples were seeded with ˜0.1% crystalline allulose and crystallization was monitored visually and by change in dry solids of the syrup fraction after 1 month of storage.
A change in DS greater than 0 indicates crystallization, and a larger number indicates a larger amount of crystallization. […] Therefore, for storage of a crystallization stable syrup at ambient and reduced temperatures, 77% solids or less is desirable. For cool (<25° C.) temperatures, 71% solids or less is more desirable.

SMILES: O=C(CO)C(O)C(O)C(O)CO (stereo not shown) [allulose]
- limit of solubility (DS): ~77%
